From patent US20070184165A1, “Compositions and methods for improving the efficiency of preservatives in foods” (RAD NATURAL TECHNOLOGIES LTD., priority 2003, published 2007) come the findings set out here.

The subject of one assay is mold. Nature of the assay: Deterioration of whole wheat flour due to mold, measured by carbon dioxide formation. The settings on record: for carbon dioxide formation: 22% moisture, 30° C. The method, then: Whole wheat flour which contained 22% moisture was maintained at a temperature of 30° C. The deterioration due to mold formation was measured by determining the amount (%) of carbon dioxide which formed over a ten day period or until the maximum of 15-16% was attained, whichever was the sooner.

The subject of another assay is salmonella. Nature of the assay: Inhibition of salmonella growth. It counts as cell-based. Particulars: control growth at 8 hours = 100%. The method, then: The inhibition of salmonella growth was determined for the title combination and this was compared with control (absence of inhibitors) and using separately, sodium rosmarinate and sodium acetate. The results are as follows, comparing the inhibition of growth effect of inhibitors, control growth being taken arbitrarily at 8 hours, as 100%: […]

Assay [1] can be described thus: Inhibition of oxidative deterioration in soybean oil at 180° C. (hexanal and trans-decadienal formed). Particulars: four hours, 0.02%. How it is done:
(c) Inhibition of oxidative deterioration in soybean oil at 180° C. (four hours) was determined by dissolving Origanox™ OS-A, rosemary oil or TBHQ in the soybean oil and determining the amount of hexanal and trans-decadienal formed in the product, compared with a control in which no antioxidant was used.

Assay [2] in a line: Myoglobin stabilization (colour intensity) in treated fresh beef. Particulars: after seven days, 250 ppm. How it is done: (c) Fresh beef was treated, by injection, with “Origanox™ WS-A” (b)(i), above. The thus-treated fresh beef product contained approximately 32.5 ppm sodium rosmarinate and 250 ppm ascorbic acid. The product was tested for myoglobin stabilization by measuring absorption, i.e. intensity of color, at 542 nm, after seven days.

Assay [3] in a line: Freshness of cured beef by formation of malondialdehyde. The method, then:
(d) Cured beef was treated with “Origanox™ WS-A” (b(ii), above). The thus-treated cured beef product contained approximately 32.5 ppm sodium rosmarinate and 500 ppm ascorbic acid. The higher proportion of ascorbic acid in this case was to inhibit the formation of toxic nitrosamines. The product was tested for freshness as evidenced by the formation of malondialdehyde after 1, 4 and 7 days, and compared with control (no treatment) and with other treatments.

On to `CCC(=O)[O-].CCC(=O)[O-].[Ca+2]` [Ca propionate, calcium propionate], for which the “time until maximum % carbon dioxide (maximum deterioration) was reached” value with mold (0.2%) lay in the range of 7 to 8 days. In addition, the carbon dioxide formation with mold (Day 0, 0.2%) was 0.54%; in the assay with mold (Day 1, 0.2%), 0.81%; in the assay on mold (Day 2, 0.2%), 1.1%; in the assay with mold (Day 3, 0.2%) it was 1.3%; in the assay on mold (Day 4, 0.2%) it was 2.0%; in the assay with mold (Day 5, 0.2%), 3.2%. Besides, the carbon dioxide formation is reported as 6.5% in the assay with mold (Day 6, 0.2%); 14.6% with mold (Day 7, 0.2%); 15% in the assay on mold (Day 8, 0.2%).
Regarding `CC(=O)[O-].[Na+]` [Sodium acetate], the “% Growth” value in the assay with salmonella (4 hours, 1.0%) is 33%; with salmonella (4 hours, 2.0%), 17%; in the assay on salmonella (8 hours, 1.0%), 75%; in the assay on salmonella (8 hours, 2.0%), 62%.
In general, % Inhibition refers to the relative decrease from the control value, in per cent. Low readings indicate a weak effect, high ones a strong effect. With `CC(C)(C)c1cc(O)ccc1O` [TBHQ], the “% Inhibition” value in assay [1] was 32%.
For `O=C1O[C@H]([C@@H](O)CO)C(O)=C1O` [ascorbic acid], the “absorption at 542 nm” value in assay [2] is given as 0.513. Moreover, the Formation of malondialdehyde in assay [3] (day 1, 500 ppm) was 0.788 mg/kg; in assay [3] (day 4, 500 ppm), 1.224 mg/kg; in assay [3] (day 7, 500 ppm), 1.944 mg/kg.
As to `O=C(/C=C/c1ccc(O)c(O)c1)O[C@H](Cc1ccc(O)c(O)c1)C(=O)O` [sodium rosmarinate], the Formation of malondialdehyde in assay [3] (day 1, 32.5 ppm) is recorded as 0.798 mg/kg; in assay [3] (day 4, 32.5 ppm), 1.097 mg/kg; in assay [3] (day 7, 32.5 ppm), 1.327 mg/kg.
